Source: patent US5399570A, “Aspartic acid derivatives, and their use for inhibiting platelete aggregation” (Cassella Aktiengesellschaft, priority 1992, dated 1995)
pIC50, pKi: −log10 of the molar value. Where two headings read alike, the source gives them in different places.

Columns and labels:
[1] = system: filtered, plasma-free human platelets; assay: inhibition of aggregation of filtered human platelets after ADP or thrombin stimulation; format: cell-based; details: Platelet
Protocol: (§1) The compounds of the formula I are in particular tested for their inhibiting action in blood platelet aggregation and the adhesion of fibrinogen to blood platelets. The measurement of aggregation and the binding of ^125 I-fibrinogen is carried out on filtered, plasma-free human platelets. Platelet activation is effected by means of ADP or thrombin.
As a functional test, the inhibition of aggregation of filtered human platelets is measured after ADP or thrombin stimulation by the compounds according to the invention. The IC50 value of inhibition is given.

[2] = molecular target: T1, glycoprotein IIb/IIIa localised on blood platelets (fibrinogen receptor) (Homo sapiens, UniProt P05106+P08514); assay: inhibition of binding of ^125 I-fibrinogen to human platelets after stimulation with ADP; details: after stimulation with ADP (10 μM)
T1 construct: carried out on filtered, plasma-free human platelets; endogenous in cells; host or cells: filtered, plasma-free human platelets, stimulated with ADP (10 μM)
T1 sequence (P08514 32-887 limits assumed): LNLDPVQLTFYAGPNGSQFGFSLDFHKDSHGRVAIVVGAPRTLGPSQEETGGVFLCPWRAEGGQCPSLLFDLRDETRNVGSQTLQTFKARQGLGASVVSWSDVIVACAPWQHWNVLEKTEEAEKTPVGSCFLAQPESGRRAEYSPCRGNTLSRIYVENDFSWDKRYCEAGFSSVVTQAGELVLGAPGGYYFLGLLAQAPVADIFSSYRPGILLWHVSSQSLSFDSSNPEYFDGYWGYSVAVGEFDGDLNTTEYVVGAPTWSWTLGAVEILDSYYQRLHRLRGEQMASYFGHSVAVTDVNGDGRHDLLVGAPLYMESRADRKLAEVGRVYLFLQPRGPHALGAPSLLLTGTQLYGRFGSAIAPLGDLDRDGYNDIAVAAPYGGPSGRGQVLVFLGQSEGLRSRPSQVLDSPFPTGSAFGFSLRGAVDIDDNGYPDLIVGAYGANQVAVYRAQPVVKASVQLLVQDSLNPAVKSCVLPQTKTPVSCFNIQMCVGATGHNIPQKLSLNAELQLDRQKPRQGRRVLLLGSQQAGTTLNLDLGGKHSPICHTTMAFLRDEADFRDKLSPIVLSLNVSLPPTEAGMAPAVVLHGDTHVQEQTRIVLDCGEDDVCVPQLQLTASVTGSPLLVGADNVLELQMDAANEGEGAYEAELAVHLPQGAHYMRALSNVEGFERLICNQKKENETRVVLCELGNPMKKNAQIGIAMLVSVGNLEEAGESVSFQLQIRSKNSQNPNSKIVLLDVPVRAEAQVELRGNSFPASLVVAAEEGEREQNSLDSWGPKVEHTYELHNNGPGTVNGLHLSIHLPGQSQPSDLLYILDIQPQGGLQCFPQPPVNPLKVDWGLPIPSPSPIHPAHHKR
T1 sequence (P05106 27-788): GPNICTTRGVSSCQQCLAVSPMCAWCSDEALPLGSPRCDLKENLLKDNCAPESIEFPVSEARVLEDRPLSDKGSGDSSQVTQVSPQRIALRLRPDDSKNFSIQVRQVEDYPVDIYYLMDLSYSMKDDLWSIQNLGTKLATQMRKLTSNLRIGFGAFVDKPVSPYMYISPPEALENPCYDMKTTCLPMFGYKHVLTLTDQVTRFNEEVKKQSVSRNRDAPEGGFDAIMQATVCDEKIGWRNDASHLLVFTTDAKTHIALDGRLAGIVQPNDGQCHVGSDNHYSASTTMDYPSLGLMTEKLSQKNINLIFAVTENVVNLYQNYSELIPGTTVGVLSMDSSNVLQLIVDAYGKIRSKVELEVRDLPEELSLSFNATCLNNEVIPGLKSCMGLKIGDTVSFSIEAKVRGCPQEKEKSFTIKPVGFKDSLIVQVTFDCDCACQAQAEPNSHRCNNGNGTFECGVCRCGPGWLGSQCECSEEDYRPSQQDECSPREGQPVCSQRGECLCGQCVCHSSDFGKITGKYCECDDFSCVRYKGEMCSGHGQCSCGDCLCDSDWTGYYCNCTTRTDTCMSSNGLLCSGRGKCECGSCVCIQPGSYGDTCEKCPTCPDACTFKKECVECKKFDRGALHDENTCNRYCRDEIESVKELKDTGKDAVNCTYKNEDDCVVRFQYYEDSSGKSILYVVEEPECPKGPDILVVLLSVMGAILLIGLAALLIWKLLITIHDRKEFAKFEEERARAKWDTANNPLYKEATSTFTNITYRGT
Excerpt: Integrins are cell membrane glycoproteins and mediate cell adhesion by interaction with a large number of extracelluar proteins, such as fibronectin, laminin, fibrinogen, collagen, vitronectin, and yon Willebrand factor or with other cell membrane proteins, such as, for example, ICAM-1. An important receptor of the integrin family is glycoprotein IIb/IIIa localised on blood platelets (fibrinogen receptor)--a key protein in platelet-platelet interaction and thrombus formation. A central fragment in the receptor recognition sequence of these proteins is the tripeptide Arg--Gly--Asp (E. Ruoslahti and M. D. Pierschbacher, Science 238 (1987) 491-497; D. R. Phillips, I. F. Charo, L. V. Parise and L. A. Fitzgerald, Blood 71 (1988) 831-843).
as §1
The Ki value of the inhibition of binding of ^125 I-fibrinogen after stimulation with ADP (10 μm) is given.
Reference: J. S. Bennett and G. Vilaire, J. Clin. Invest. 64, (1979), 1393-1401.

[3] = ADP stimulation, read-out: Inhibition of platelet aggregation ADP, IC50 value of inhibition
[4] = thrombin stimulation, read-out: Inhibition of platelet aggregation Thrombin, IC50 value of inhibition

SMILES | pIC50 [1, 3] | pIC50 [1, 4] | pKi [2]
N=C(N)N1CCC(Cc2ccc(C(=O)N[C@@H](CC(=O)O)C(=O)NC3CCCCC3)cc2)CC1 [Example 2, p-(4-(N-Amidinopiperidinyl)methyl)benzoyl-L-aspartylcyclohexylamide] | 4.82 | 5.00 | 
N=C(N)N1CCC(Cc2ccc(C(=O)N[C@@H](CC(=O)O)C(=O)NCCC(c3ccccc3)c3ccccc3)cc2)CC1 [Example 3] | 4.82 | 5.30 | 
CC(C)NC(=O)[C@H](CC(=O)O)NC(=O)c1ccc(CC2CCN(C(=N)N)CC2)cc1 [Example 4] | 4.70 | 4.82 | 5.00

Stronger by pIC50 [1, 3], values ahead:

pIC50 [1, 3] | pIC50 [1, 4] | pKi [2] | SMILES
5.10 | 5.70 |  | CC(C)[C@H](NC(=O)[C@H](CC(=O)O)NC(=O)c1ccc(CC2CCN(C(=N)N)CC2)cc1)C(=O)O [Example 1, p-(4-(N-Amidinopiperidinyl)methyl)benzoyl-L-aspartyl-L-valine]
5.10 | 5.40 | 5.51 | CN(CC(=O)N[C@@H](CC(=O)O)C(=O)NC(c1ccccc1)c1ccccc1)C(=O)[C@H]1CC[C@H](CNC(=N)N)CC1 [Example 12, trans-4 -Guanidinomethylcyclohexanecarboxylsarcosyl-L-aspartylbenzhydrylamide]
5.35 | 5.82 | 6.10 | CC(C)[C@H](NC(=O)[C@H](CC(=O)O)NC(=O)c1ccc(OC2CCN(C(=N)N)CC2)cc1)C(=O)O [Example 14, p-(4-N-Amidinopiperidinyloxy)benzoyl-L-aspartyl-L-valine]
5.70 | 5.70 | 5.74 | CN(CC(=O)N[C@@H](CC(=O)O)C(=O)NCCC(c1ccccc1)c1ccccc1)C(=O)c1ccc(CNC(=N)N)cc1 [Example 9, p-Guanidinomethylbenzoylsarcosyl-L-aspartyl-3,3-diphenylpropylamide]
